# Source: publication PMC8184855, “A small molecule inhibitor of Nox2 and Nox4 improves contractile function after ischemia–reperfusion in the mouse heart” (Scientific Reports, 2021)
# pIC50: −log10 of the molar value.
# Molecular target: T1, Nox4 (Homo sapiens, UniProt Q9NPH5)
# T1 sequence (Q9NPH5 1-578): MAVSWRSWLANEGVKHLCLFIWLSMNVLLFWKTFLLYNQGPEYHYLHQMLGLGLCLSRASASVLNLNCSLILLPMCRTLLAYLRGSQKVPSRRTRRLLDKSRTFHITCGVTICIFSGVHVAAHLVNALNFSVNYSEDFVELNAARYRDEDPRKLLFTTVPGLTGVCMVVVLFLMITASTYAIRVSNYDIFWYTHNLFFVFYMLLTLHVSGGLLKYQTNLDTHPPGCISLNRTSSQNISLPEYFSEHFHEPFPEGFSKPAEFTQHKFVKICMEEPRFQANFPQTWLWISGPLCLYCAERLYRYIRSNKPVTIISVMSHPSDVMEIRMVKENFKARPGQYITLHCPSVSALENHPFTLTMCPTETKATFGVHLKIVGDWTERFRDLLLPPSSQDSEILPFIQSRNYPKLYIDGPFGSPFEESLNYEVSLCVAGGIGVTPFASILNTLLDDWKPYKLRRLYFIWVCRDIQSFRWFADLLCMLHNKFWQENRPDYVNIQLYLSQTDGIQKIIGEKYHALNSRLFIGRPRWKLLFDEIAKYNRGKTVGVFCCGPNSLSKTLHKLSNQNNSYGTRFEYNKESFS
# Experiment: Amplex Red H2O2 assay in CJ HEK […] cells overexpressing Nox4 (found by screen in T-Rex-293 with inducible Nox4); H2O2 counter-screen and DPPH redox control
# Type: cell-based
compound,measurement,value
COc1cccc(N2CCN(Cc3nc(N)nc(Nc4ccc(C)c(C)c4)n3)CC2)c1 [GLX481304],pIC50,5.90
